Test results as given in ChEMBL document CHEMBL1201862, “PubChem BioAssay data set” (2004).
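Test compounds were applied to cells in 96-well plates for 48 hours at 5 doses. Here, GI50 denotes the concentration required for 50% inhibition of growth.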 Active and inactive are the calls of the source. Rule as the data show it: active = GI50 up to about 1.1 µM and inactive = higher.

Legend:
Test in all cases: NCI anticancer screen, dose series, 48 h
[1] = test system: SNB-75
[2] = test system: HOP-62
[3] = test system: RXF 393
[4] = test system: M14
[5] = test system: NCI-H522
[6] = test system: NCI-H226
[7] = test system: UACC-257
[8] = test system: CAKI-1
[9] = test system: KM12
[10] = test system: SF-268
[11] = test system: OVCAR-3
[12] = test system: SK-OV-3
[13] = test system: SK-MEL-5
[14] = test system: A549
[15] = test system: SW-620
[16] = test system: NCI-H460
[17] = test system: ACHN
[18] = test system: RPMI-8226
[19] = test system: SF-295

Measured: GI50

O=C1NC(O)n2c(=O)[nH]c(=O)n21 (centres undefined)
inactive: [1] > 100 µM | [2] > 100 µM | [3] > 100 µM | [4] > 100 µM | [5] > 100 µM | [6] > 100 µM | [7] > 100 µM | [8] > 100 µM | [9] > 100 µM | [10] > 100 µM | [11] > 100 µM | [12] > 100 µM | [13] > 100 µM | [14] > 100 µM | [15] > 100 µM | [16] > 100 µM | [17] > 100 µM | [18] > 100 µM | [19] > 100 µM

CCOC(=O)C(C[Si](C)(C)C)P(=O)(OCC)OCC (centres undefined)
inactive: [1] 38.5 µM | [2] > 100 µM | [3] > 100 µM | [4] > 100 µM | [5] > 100 µM | [6] > 100 µM | [7] > 100 µM | [8] > 100 µM | [9] > 100 µM | [10] > 100 µM | [11] > 100 µM | [12] > 100 µM | [13] > 100 µM | [14] > 100 µM | [15] > 100 µM | [16] > 100 µM | [17] > 100 µM | [18] > 100 µM | [19] > 100 µM

Cc1cc2c(cc1Cl)SSc1cc(Cl)c(C)cc1S(=O)(=O)Nc1nc(N)nn1C(O)n1nc(N)nc1NS2(=O)=O
inactive: [1] > 10 µM | [2] > 10 µM | [3] > 10 µM | [4] > 10 µM | [5] > 10 µM | [6] > 10 µM | [7] > 10 µM | [8] > 10 µM | [9] > 10 µM | [10] > 10 µM | [11] > 10 µM | [12] > 10 µM | [13] > 10 µM | [14] > 10 µM | [15] > 10 µM | [16] > 10 µM | [17] > 10 µM | [18] > 10 µM | [19] > 10 µM

COc1ccc(NC(=O)CC(=O)N2N=C(N(CCC#N)c3cccc(C)c3)CC2c2ccccc2)cc1 (centres undefined)
inactive: [1] > 100 µM | [2] > 100 µM | [3] > 100 µM | [4] > 100 µM | [5] > 100 µM | [6] > 100 µM | [7] > 100 µM | [8] > 100 µM | [9] > 100 µM | [10] > 100 µM | [11] > 100 µM | [12] > 100 µM | [13] > 100 µM | [14] > 100 µM | [15] > 100 µM | [16] > 100 µM | [17] > 100 µM | [18] > 100 µM | [19] > 100 µM

COc1ccc(C(=O)C(c2ccc(OC)cc2)C2(O)C(=O)Nc3ccc([N+](=O)[O-])cc32)cc1 (centres undefined)
inactive: [1] 32.3 µM | [2] > 100 µM | [3] > 100 µM | [4] > 100 µM | [5] > 100 µM | [6] > 100 µM | [7] > 100 µM | [8] > 100 µM | [9] > 100 µM | [10] > 100 µM | [11] > 100 µM | [12] > 100 µM | [14] > 100 µM | [15] > 100 µM | [16] > 100 µM | [17] > 100 µM | [18] > 100 µM | [19] > 100 µM

O=S1(=O)c2ccccc2NC(c2ccc3ccccc3c2)CC1c1ccccc1F (centres undefined)
inactive: [1] > 100 µM | [2] > 100 µM | [3] > 100 µM | [4] > 100 µM | [5] > 100 µM | [6] > 100 µM | [7] > 100 µM | [8] > 100 µM | [9] > 100 µM | [10] > 100 µM | [11] > 100 µM | [12] > 100 µM | [13] > 100 µM | [14] > 100 µM | [15] > 100 µM | [16] > 100 µM | [17] > 100 µM | [18] > 100 µM | [19] > 100 µM

CC(N)Cc1ccc(Cl)c(Cl)c1 (centres undefined)
inactive: [1] 23.3 µM | [2] 39.5 µM | [3] 24.9 µM | [4] 18.4 µM | [5] 29.6 µM | [6] 33.6 µM | [7] 22.9 µM | [8] 23.6 µM | [9] 10.6 µM | [10] 71.8 µM | [11] 69.3 µM | [12] 74.8 µM | [13] 16.6 µM | [14] > 100 µM | [15] 22 µM | [16] 30.1 µM | [17] 26.8 µM | [18] 34.8 µM | [19] > 52.2 µM

CC(=O)N(N=O)c1ccc(N(N=O)C(C)=O)cc1
inactive: [1] > 100 µM | [2] > 100 µM | [3] > 100 µM | [4] > 100 µM | [5] > 100 µM | [6] > 100 µM | [8] > 100 µM | [10] > 100 µM | [11] > 100 µM | [12] > 100 µM | [13] > 100 µM | [14] > 100 µM | [15] > 100 µM | [16] > 100 µM | [17] > 100 µM | [18] > 100 µM | [19] > 100 µM
